According to patent publication US9023861B2, “Anticancer combination of artemisinin-based drugs and other chemotherapeutic agents” (Sigma-Tau Industrie Farmaceutiche Riunite, S.p.A., priority 2009, dated 2015):
Values belong to the compound of their own block, whether it stands above or below them.

Key:
NCI-H460 = experiment: Synergistic interaction with DHA, combination index (Chou-Talalay, SRB); assay type: cell-based; settings: drug in combination with DHA (1.0-20 μM), DHA 2 h before, drug 72 h
Protocol: (§1) Tumour cells were treated for 2 h with DHA prior to exposure to further chemotherapeutic agents for 72 h. Cell survival was then evaluated through sulphorodamine B test. Data gathered from the various combination experiments were analyzed using Calcusyn software (Biosoft, Ferguson, Mo.) through the elaboration of isobolograms to determine if the combinations of DHA and the various chemotherapeutic agents were additive, synergistic or antagonistic.

A431 = experiment: as above; assay type: cell-based; settings: drug in combination with DHA (1.0-20 μM), DHA 2 h before, drug 72 h
Protocol: as §1

CAPAN-1 = experiment: as above; assay type: cell-based; settings: drug in combination with DHA (1.0-20 μM), DHA 2 h before, drug 72 h
Protocol: as §1

HCT116 [1] = experiment: as above; assay type: cell-based; settings: drug in combination with DHA (1.0-20 μM), DHA 2 h before, drug 72 h
Protocol: as §1

MDA-MB436 = experiment: as above; assay type: cell-based; settings: drug in combination with DHA (1.0-20 μM), DHA 2 h before, drug 72 h
Protocol: as §1

[2] = tested on: HCT116 colon cancer cells; experiment: In vivo antitumour activity, s.c. xenograft in CD1 nude mice; settings: DHA 200 mg/kg p.o., AZD2281 100 mg/kg i.p., qdx5/wx4w; for antitumor effect when given singularly / tolerability (body weight loss during the treatment): HCT116 xenograft mice, ABT-888 50 mg/kg; for BWL %: body weight loss; for BWL % / TVI % / TV ± SE: HCT116 xenograft, CD1 nude mice, ABT-888 50 mg/kg i.p.; for TVI %: tumour volume inhibition; for TV ± SE: tumour volume, evaluated at about 500 mm^3
Protocol: HCT116 colon cancer cells were inoculated subcutaneously (s.c.) in the right flank of CD1 nude mice (5×10^6/0.1 ml of Medium 199). Treatments started three days after tumour injection. Mice were subdivided (8 mice/group) in the following experimental groups:
(§2) a) Vehicle (DMSO 10%) 10 ml/kg, i.p.;
b) DHA 200 mg/kg, p.o. qdx5/wx4w;
d) AZD2281+DHA (doses and schedules as above);
e) ABT-888 50 mg/kg, i.p. qdx5/wx4w;
f) ABT-888+DHA (doses and schedules as above).
DHA was administered immediately before AZD2281 or ABT-888.
The antitumour activity was evaluated according to the protocol reported hereinabove in example 3 when tumours reached a volume of about 500 mm^3.
Body weight recording was carried out to evaluate body weight loss according to the protocol reported hereinabove in example 3.

HCT116 [3] = experiment: Anti-proliferative activity, sulphorodamine B test; assay type: cell-based; settings: Homo sapiens, HCT-116, 24 h exposure, 48 h recovery
Protocol: (§3) The biological activity of DHA and ART on tumour cells survival was evaluated. The latter were seeded in 96-well tissue culture plates at approximately 10% confluence and were allowed to attach and recover for at least 24 h before being exposed to DHA or ART for 24 h at 37° C. They were then washed to remove DHA and ART and left to recover for 48 hours in medium culture. The medium culture was then removed and cells were washed three times with PBS. The plates were then incubated for on ice for 1 hour with 200 μl of PBS and 50 μl of cold 80% TCA before being washed with distilled water, dried on paper and finally at 40° C. for 5 minutes. 200 μl of 0.4% sulphorodamine B in 1% acetic acid were added and the incubation was prolonged for 30 minutes. Sulphorodamine B was removed, and the plates were washed 3 times with 1% acetic acid. They were finally dried on paper followed by standing at 40° C. for 5 minutes. Then 200 μl Tris 10 mM were added, the plates were kept under stirring for 20 minutes. Cell survival was determined as optical density at 540 nm by means of a Multiskan spectrofluorimeter. The amount of cells killed was expressed as the percentage decrease in sulphorodamine B binding compared to control cultures. IC50 were generated with their standard deviations by the ALLFIT program.

LoVo/Dx MDR = experiment: Anti-proliferative activity, sulphorodamine B test; assay type: cell-based
Protocol: as §3

LoVo = experiment: Anti-proliferative activity, sulphorodamine B test; assay type: cell-based; settings: Homo sapiens, 24 h exposure, 48 h recovery
Protocol: as §3

MCF-7/Dx MDR = experiment: Anti-proliferative activity, sulphorodamine B test; assay type: cell-based
Protocol: as §3

MCF-7 = experiment: Anti-proliferative activity, sulphorodamine B test; assay type: cell-based; settings: Homo sapiens, MCF7, 24 h exposure, 48 h recovery
Protocol: as §3

A2780/DDP = experiment: Synergistic interaction with DHA, combination index (Chou-Talalay, SRB); assay type: cell-based; settings: drug in combination with DHA (1.0-20 μM), DHA 2 h before, drug 72 h
Protocol: (§4) Tumour cells were grown in RPMI 1640 containing 10% foetal bovine serum and treated as described in example 1 with the exception that instead of being exposed only to ART or DHA, the cell lines were treated with the drugs reported in table 2 in combination with DHA (from 1.0 μM to 20 μM, table 2). Tumour cells were treated for 2 h with DHA prior to exposure to further chemotherapeutic agents for 72 h. Cell survival was then evaluated through sulphorodamine B test. Data gathered from the various combination experiments were analyzed using Calcusyn software (Biosoft, Ferguson, Mo.) through the elaboration of isobolograms to determine if the combinations of DHA and the various chemotherapeutic agents were additive, synergistic or antagonistic. Viability assay results (SRB) were expressed as the fraction of cells killed when exposed to a single drug or to a drug combination with respect to the untreated cells. A combination index value (CI) was determined by means of the Chou-Talalay median effect method (T-C Chou, et al., Trends Pharmacol. Sci., 1983, 4, 450), wherein synergism can be defined when CI<1 and the lower the CI parameter value, the stronger the synergism (as defined by CalcuSyn 2.0 analyzer).

SW620 = experiment: as above; assay type: cell-based; settings: drug in combination with DHA (1.0-20 μM), DHA 2 h before, drug 72 h
Protocol: as §4

[4] = tested on: NCI-H460 non-small cell lung carcinoma; experiment: In vivo antitumor activity, s.c. xenograft in CD1 nude mice; settings: DHA 200 mg/kg p.o., AZD2281 100 mg/kg i.p., qdx5/wx3w
Protocol: NCI-H460 non-small cell lung carcinoma cells were inoculated subcutaneously (s.c.) in the right flank of CD1 nude mice (3×10^6/0.1 ml of Medium 199). Treatments started three days after tumour injection. Mice were subdivided (10 mice/group) in the following experimental groups:
as §2
b) DHA 200 mg/kg, p.o. qdx5/wx3w;
d) AZD2281+DHA (doses and schedules as above).
For the latter experiment DHA was administered immediately before AZD2281.
To evaluate the antitumour activity, tumour diameters were measured with a Vernier calliper according to the formula TV=d^2×D/2 where d and D are the shortest and longest diameters, respectively.
When tumours reached a volume of about 1500 mm^3, mice were sacrificed by cervical dislocation. The efficacy of the drug was assessed as the tumour volume inhibition according to the formula reported underneath: […]
Body weight recording was carried out to evaluate body weight loss as calculated in the equation underneath: […]
Wherein BW day x corresponds to the mean weight at day x of the experiment meanwhile BW day 1 corresponds to the mean weight at the first day of the experiment.

A2780 = experiment: Synergistic interaction with DHA, combination index (Chou-Talalay, SRB); assay type: cell-based; settings: drug in combination with DHA (1.0-20 μM), DHA 2 h before, drug 72 h
Protocol: as §4

Structure (SMILES): CC[C@@]1(O)C(=O)OCc2c1cc1n(c2=O)Cc2c-1nc1ccccc1c2/C=N\OCCN [7-(2-amino)-ethoxyiminomethyl-camptothecin]
Combination index values ED50 (NCI-H460): 0.39
Combination index values ED75 (NCI-H460): 0.24
Combination index values ED90 (NCI-H460): 0.16

Structure (SMILES): C[C@]1(c2nc3c(C(N)=O)cccc3[nH]2)CCCN1 [ABT-888]
Combination index values ED50 (A431): 0.45
Combination index values ED75 (A431): 0.49
Combination index values ED90 (A431): 0.37
Combination index values ED50 (CAPAN-1): 0.59
Combination index values ED75 (CAPAN-1): 0.32
Combination index values ED90 (CAPAN-1): 0.22
Combination index values ED50 (HCT116 [1]): 0.66
Combination index values ED75 (HCT116 [1]): 0.66
Combination index values ED90 (HCT116 [1]): 0.66
Combination index values ED50 (MDA-MB436): 0.42
Combination index values ED75 (MDA-MB436): 0.43
Combination index values ED90 (MDA-MB436): 0.47
Combination index values ED50 (NCI-H460): 0.78
Combination index values ED75 (NCI-H460): 0.61
Combination index values ED90 (NCI-H460): 0.49
antitumor effect when given singularly [2]: None of them when given singularly did show any antitumor effect
tolerability (body weight loss during the treatment) [2]: well-tolerated
BWL % [2]: 0%
TVI % [2]: 2%
TV ± SE [2]: 395 ± 56

IC50 (HCT116 [3]): 257 ± 28.8 µM
IC50 (LoVo/Dx MDR; LoVo/Dx MDR, 24 h exposure, 48 h recovery): > 200 µM
IC50 (LoVo): > 200 µM
IC50 (MCF-7/Dx MDR; MCF7/DX, MCF-7/Dx MDR, 24 h exposure, 48 h recovery): 187 ± 70 µM
IC50 (MCF-7): 45.8 ± 11.5 µM
Structure (SMILES): C[C@@H]1CC[C@H]2[C@@H](C)C(=O)O[C@@H]3O[C@@]4(C)CC[C@@H]1[C@]32OO4 [ART, artemisinin]
resistance index (MCF-7/Dx MDR; MCF-7/Dx MDR versus MCF-7): 4

Structure (SMILES): O=C(c1cc(Cc2n[nH]c(=O)c3ccccc23)ccc1F)N1CCN(C(=O)C2CC2)CC1 [AZD2281]
Combination index values ED50 (A431): 0.37
Combination index values ED75 (A431): 0.02
Combination index values ED90 (A431): 0.02
Combination index values ED50 (CAPAN-1): 0.35
Combination index values ED75 (CAPAN-1): 0.49
Combination index values ED90 (CAPAN-1): 0.73
Combination index values ED50 (HCT116 [1]): 0.36
Combination index values ED75 (HCT116 [1]): 0.34
Combination index values ED90 (HCT116 [1]): 0.31
Combination index values ED50 (MDA-MB436): 0.28
Combination index values ED75 (MDA-MB436): 0.30
Combination index values ED90 (MDA-MB436): 0.68
Combination index values ED50 (NCI-H460): 0.62
Combination index values ED75 (NCI-H460): 0.48
Combination index values ED90 (NCI-H460): 0.42
Combination index values ED50 (A2780/DDP): 0.63
Combination index values ED75 (A2780/DDP): 0.68
Combination index values ED90 (A2780/DDP): 0.63
Combination index values ED50 (SW620): 0.60
Combination index values ED75 (SW620): 0.55
Combination index values ED90 (SW620): 0.66
antitumor effect when given singularly ([4]; NCI-H460 xenograft mice): no antitumor effect
tolerability (body weight loss during the treatment) ([4]; NCI-H460 xenograft mice): well-tolerated
BWL % ([4]; body weight loss, NCI-H460 xenograft, CD1 nude mice): 1%
TVI % ([4]; tumour volume inhibition, NCI-H460 xenograft, CD1 nude mice): 1%
TV ± SE ([4]; tumour volume, NCI-H460 xenograft, CD1 nude mice, sacrifice at about 1500 mm^3): 1603 ± 171
antitumor effect when given singularly [2]: None of them when given singularly did show any antitumor effect
tolerability (body weight loss during the treatment) [2]: well-tolerated
BWL % [2]: 1%
TVI % [2]: 18%
TV ± SE [2]: 328 ± 52

Structure (SMILES): N.N.O=C([O-])C1(C(=O)[O-])CCC1.[Pt+2] [Carboplatin, carboplatin]
Combination index values ED50 (NCI-H460): 0.53
Combination index values ED75 (NCI-H460): 0.71
Combination index values ED90 (NCI-H460): 0.95

Structure (SMILES): N.N.[Cl][Pt][Cl] [Cisplatin, cisplatin]
Combination index values ED50 (NCI-H460): 0.79
Combination index values ED75 (NCI-H460): 0.88
Combination index values ED90 (NCI-H460): 0.98

Structure (SMILES): COc1cccc2c1C(=O)c1c(O)c3c(c(O)c1C2=O)C[C@@](O)(C(=O)CO)C[C@@H]3O[C@H]1C[C@H](N)[C@H](O)[C@H](C)O1 [Doxorubicin, doxorubicin]
resistance index (LoVo/Dx MDR; LoVo/Dx MDR versus LoVo): 63
Combination index values ED50 (NCI-H460): 0.76
Combination index values ED75 (NCI-H460): 0.53
Combination index values ED90 (NCI-H460): 0.37

Structure (SMILES): NC(=O)c1cccc2cn(-c3ccc([C@@H]4CCCNC4)cc3)nc12 [MK-4827]
Combination index values ED50 (NCI-H460): 0.83
Combination index values ED75 (NCI-H460): 0.83
Combination index values ED90 (NCI-H460): 0.84

Structure (SMILES): O=c1[nH]c2ccccc2c2ccccc12 [Phenanthridinone]
Combination index values ED50 (NCI-H460): 0.19
Combination index values ED75 (NCI-H460): 0.20
Combination index values ED90 (NCI-H460): 0.22
Combination index values ED50 (A2780): 0.003
Combination index values ED75 (A2780): 0.05
Combination index values ED90 (A2780): 0.67

Structure (SMILES): CCc1c2c(nc3ccc(O)cc13)-c1cc3c(c(=O)n1C2)COC(=O)[C@]3(O)CC [SN-38]
Combination index values ED50 (NCI-H460): 0.81
Combination index values ED75 (NCI-H460): 0.68
Combination index values ED90 (NCI-H460): 0.59
